Patent US20240327334A1, “Covalent Inhibitors As Antiviral Agents” (Enanta Pharmaceuticals, Inc., priority 2022, published 2024)

The compounds below were run against SARS-CoV-2 Papain-like (PLpro) protease (Severe acute respiratory syndrome coronavirus 2, UniProt P0DTD1) (assay: SARS-CoV-2 Papain-like (PLpro) protease biochemical enzyme inhibition assay (ubiquitin-fluorophore substrate, Ub-R110)). Settings: Ub-R110 substrate; run in duplicate; read-out: PLpro IC50.

Row | Structure (SMILES) | IC50
1 | N#CN1CCC[C@@H]1CNC(=O)C(=O)NCc1ccccc1C(=O)NC1(c2cccc3ccccc23)CC1 [Example 508] | 100 to 1000 nM
2 | C[C@@H](NC(=O)c1ccccc1CNC(=O)C(=O)NCC#N)c1cc(-c2ccccc2)cc(C(F)(F)F)c1 [Example 34] | < 100 nM
3 | O=C(NCC#CC1CC1)C(=O)NCc1ccccc1C(=O)NC1(c2ccc3ccccc3c2)CC1 [Example 523] | > 10000 nM
4 | C#CCNC(=O)C(=O)NCc1ccccc1C(=O)NC1(c2cccc3ncccc23)CC1 [Example 374] | < 100 nM
5 | CC#CC(=O)NNC(=O)C(=O)NCc1ccccc1C(=O)N[C@H](C)c1cccc2ccccc12 [Example 7] | > 10000 nM
6 | CC(C)[C@@H](C#Cc1ccccn1)NC(=O)C(=O)NCc1ccccc1C(=O)NC1(c2ccc3ccccc3c2)CC1 [Example 207] | > 10000 nM
7 | C[C@@H](NC(=O)c1ccccc1CNC(=O)C(=O)NCC#N)c1cc(C(F)(F)F)nc2ccccc12 [Example 325] | > 10000 nM
8 | Cc1nnc(-c2cc(-c3nnc(C)o3)cc(C3(NC(=O)c4ccccc4CNC(=O)C(=O)NCC#N)CC3)c2)o1 [Example 478] | 100 to 1000 nM
9 | N#CCNC(=O)C(=O)NCc1ccccc1C(=O)NC1(c2ccc3ccccc3c2)CC1 [Example 39] | 100 to 1000 nM
10 | N#CCNC(=O)C(=O)NCc1ccccc1C(=O)NC1(c2ccc(F)c(OC(F)(F)F)c2)CC1 [Example 309] | 1000 to 10000 nM
11 | N#CCCCCNC(=O)C(=O)NCc1ccccc1C(=O)NC1(c2cc(Br)cc3ccccc23)CC1 [Example 421] | 1000 to 10000 nM
12 | N#CCNC(=O)C(=O)NCc1ccccc1C(=O)NC1(c2cc(Br)cc3ccccc23)CC1 [Example 44] | < 100 nM
13 | COC(=O)/C=C/CNC(=O)C(=O)NCC1C[C@H]1C(=O)N[C@H](C)c1cccc2ccccc12 (some centres unmarked) [Example 18] | 1000 to 10000 nM
14 | N#CCNC(=O)C(=O)NCc1c(Cl)cccc1C(=O)NC1(c2cc(-c3cnn(C4CC4)c3)cc3ccccc23)CC1 [Example 291] | > 10000 nM
15 | N#CCNC(=O)C(=O)NCc1ccccc1C(=O)NC1(c2cc(-c3cnn(C4CC4)c3)nc3[nH]ccc23)CC1 [Example 414] | 100 to 1000 nM
16 | N#CCNC(=O)C(=O)NCc1ccccc1C(=O)NC1(c2cc(F)cc(C(F)(F)F)c2)CC1 [Example 375] | 1000 to 10000 nM
17 | C[C@@H](NC(=O)c1ccccc1CNC(=O)C(=O)NC/C=C/C(=O)N1CCCNC(=O)C1)c1cccc2ccccc12 [Example 549] | 100 to 1000 nM
18 | N#CCNC(=O)C(=O)NCc1ccccc1C(=O)NC1(c2c[nH]c3ncccc23)CC1 [Example 408] | < 100 nM
19 | O=C(NCC#Cc1cc(F)cc(F)c1)C(=O)NCc1ccccc1C(=O)NC1(c2ccc3ccccc3c2)CC1 [Example 75] | > 10000 nM
20 | COc1cccc(Oc2cc(C(F)(F)F)cc(C3(NC(=O)c4ccccc4CNC(=O)C(=O)NCC#N)CC3)c2)c1 [Example 64] | > 10000 nM
21 | O=C(NC/C=C/c1ccccn1)C(=O)NCc1ccccc1C(=O)NC1(c2ccc3ccccc3c2)CC1 [Example 578] | 100 to 1000 nM
22 | Cn1cc2ccc(C3(NC(=O)c4ccccc4CNC(=O)C(=O)NCC#N)CC3)cc2n1 [Example 340] | 100 to 1000 nM
23 | N#CCNC(=O)C(=O)NCc1ccccc1C(=O)NC1(c2cc(C(F)(F)F)ccc2F)CC1 [Example 371] | 1000 to 10000 nM
24 | N#CCNC(=O)C(=O)NCc1ccccc1C(=O)NC1(c2cccc(C(F)(F)F)c2F)CC1 [Example 376] | 100 to 1000 nM

Row | Structure (SMILES) | IC50
25 | O=C(NCC#Cc1ccc(F)cc1)C(=O)NCc1ccccc1C(=O)NC1(c2ccc3ccccc3c2)CC1 [Example 76] | > 10000 nM
26 | COC(=O)/C=C/CNC(=O)C(=O)NCc1ccccc1C(=O)NC1(c2ccc3ccccc3c2)CC1 [Example 43] | < 100 nM
27 | C[C@@H](C#Cc1ccc(Cl)cc1C#N)NC(=O)C(=O)NCc1ccccc1C(=O)NC1(c2ccc3nn(C)cc3c2)CC1 [Example 113] | < 100 nM
28 | O=C(C#CCNC(=O)C(=O)NCc1ccccc1C(=O)NC1(c2ccc3ccccc3c2)CC1)Nc1ccccc1 [Example 521] | 100 to 1000 nM
29 | C[C@@H](C#Cc1ncco1)NC(=O)C(=O)NCc1ccccc1C(=O)NC1(c2cc(F)cc(-c3cnn(C4CC4)c3)c2)CC1 [Example 143] | 1000 to 10000 nM
30 | N#CCNC(=O)C(=O)NCc1ccccc1C(=O)NC1(c2cccn3nccc23)CC1 [Example 405] | 100 to 1000 nM
31 | COC(=O)/C=C/CCNC(=O)C(=O)Nc1ccccc1C(=O)N[C@H](C)c1cccc2ccccc12 [Example 10] | > 10000 nM
32 | Cc1nnc(-c2cc(Cl)cc(C3(NC(=O)c4ccccc4CNC(=O)C(=O)NCC#N)CC3)c2)o1 [Example 483] | 100 to 1000 nM
33 | C[C@@H](C#Cc1ccc(C#N)cc1OC(F)(F)F)NC(=O)C(=O)NCc1ccccc1C(=O)NC1(c2ccc3ccccc3c2)CC1 [Example 208] | > 10000 nM
34 | COc1cc(C2(NC(=O)c3ccccc3CNC(=O)C(=O)NCC(O)C(F)(F)F)CC2)cc2cn(C3CC3)nc12 (centres unmarked) [Example 513] | > 10000 nM
35 | C#C[C@@H](NC(=O)C(=O)NCc1ccccc1C(=O)NC1(c2ccc3nn(C)cc3c2)CC1)C(C)C [Example 91] | > 10000 nM
36 | CC(C)Oc1cccnc1C#C[C@H](C)NC(=O)C(=O)NCc1ccccc1C(=O)NC1(c2cc(F)cc(-c3cnn(C4CC4)c3)c2)CC1 [Example 268] | 100 to 1000 nM
37 | N#CCNC(=O)C(=O)NCc1ccccc1C(=O)NC1(c2cc(-c3cn(C4CC4)nn3)cc(C(F)(F)F)c2)CC1 [Example 60] | 100 to 1000 nM
38 | C#CCNC(=O)C(=O)NCc1ccccc1C(=O)NC1(c2cc(Oc3ccccc3)cc(C(F)(F)F)c2)CC1 [Example 67] | > 10000 nM
39 | O=C(NC/C=C/c1cnccn1)C(=O)NCc1ccccc1C(=O)NC1(c2ccc3ccccc3c2)CC1 [Example 580] | 100 to 1000 nM
40 | C[C@@H](NC(=O)c1ccccc1CNC(=O)C(=O)NCCC#N)c1cccc2ccccc12 [Example 5] | > 10000 nM
41 | O=C(NCC#Cc1nccs1)C(=O)NCc1ccccc1C(=O)NC1(c2cccc3nc(C4CC4)ccc23)CC1 [Example 390] | < 100 nM
42 | N#CCNC(=O)C(=O)NCc1ccccc1C(=O)NC1(c2cc(C(F)(F)F)ccc2Cl)CC1 [Example 377] | 100 to 1000 nM
43 | Cn1cc2cc(C3(NC(=O)c4ccccc4CNC(=O)C(=O)NCC#Cc4ccc(Cl)cc4F)CC3)ccc2n1 [Example 148] | < 100 nM
44 | O=C(NCC#Cc1ccc(C(F)(F)F)s1)C(=O)NCc1ccccc1C(=O)NC1(c2ccc3ccccc3c2)CC1 [Example 89] | > 10000 nM
45 | N#CCNC(=O)C(=O)NCc1ccccc1C(=O)NC1(c2ccc3nc(C4CC4)ccc3c2)CC1 [Example 400] | < 100 nM
46 | C[C@@H](NC(=O)c1ccccc1CNC(=O)C(=O)NCCC(=O)C(F)(F)F)c1cccc2ccccc12 [Example 9] | 1000 to 10000 nM
47 | COC(=O)/C=C/CNC(=O)C(=O)NCC1C[C@@H]1C(=O)N[C@H](C)c1cccc2ccccc12 (some centres unmarked) [Example 20] | 1000 to 10000 nM
48 | N#CN1CC(CCNC(=O)C(=O)NCc2ccccc2C(=O)NC2(c3cccc4ccccc34)CC2)C1 [Example 433] | 1000 to 10000 nM

Row | Structure (SMILES) | IC50
49 | C[C@@H](NC(=O)c1ccccc1CNC(=O)C(=O)N1CCC(=O)N1)c1cccc2ccccc12 [Example 23] | > 10000 nM
50 | N#CN1CC(NC(=O)C(=O)NCc2ccccc2C(=O)NC2(c3cccc4ccccc34)CC2)C1 [Example 436, N1-(1-cyanoazetidin-3-yl)-N2-(2-((1-(naphthalen-1-yl)cyclopropyl)carbamoyl)benzyl)oxalamide] | 100 to 1000 nM
51 | O=C(NCC#Cc1ccc(F)cc1F)C(=O)NCc1ccccc1C(=O)NC1(c2ccc3ccccc3c2)CC1 [Example 80] | > 10000 nM
52 | NC(=O)N1CC[C@@H]1CNC(=O)C(=O)NCc1ccccc1C(=O)NC1(c2cccc3ccccc23)CC1 [Example 499] | 1000 to 10000 nM
53 | N#CN1CCC[C@H]1CC(=O)NCc1ccccc1C(=O)NC1(c2cc(Br)cc3ccccc23)CC1 [Example 316] | 100 to 1000 nM
54 | C#CC(=O)NNC(=O)C(=O)Nc1ccccc1C(=O)N[C@H](C)c1cccc2ccccc12 [Example 26] | 1000 to 10000 nM
55 | C[C@@H](C#Cc1nccs1)NC(=O)C(=O)NCc1ccccc1C(=O)NC1(c2cccc3c2ccn3C)CC1 [Example 531] | < 100 nM
56 | NC(=O)N1CC[C@H]1CNC(=O)C(=O)NCc1ccccc1C(=O)NC1(c2cccc3ccccc23)CC1 [Example 501] | 1000 to 10000 nM
57 | CN(C(=O)c1cc(Cl)cc(C2(NC(=O)c3ccccc3CNC(=O)C(=O)NCC#N)CC2)c1)c1ccc(F)cc1 [Example 78] | 100 to 1000 nM
58 | C[C@@H](NC(=O)c1ccccc1CNC(=O)C(=O)NC1(C#N)CC1)c1cccc2ccccc12 [Example 15] | > 10000 nM
59 | N#CCCCNC(=O)C(=O)NCc1ccccc1C(=O)NC1(c2ccc3ccccc3c2)CC1 [Example 403] | 1000 to 10000 nM
60 | N#C[C@H]1CCCN1C(=O)C(=O)NCc1ccccc1C(=O)NC1(c2cccc3ccccc23)CC1 [Example 118] | > 10000 nM
61 | N#C/C=C/CCNC(=O)C(=O)NCc1ccccc1C(=O)NC1(c2ccc3c4c(cccc24)CC3)CC1 [Example 437] | 100 to 1000 nM
62 | Cc1cnn(C)c1-c1cc(C(F)(F)F)cc(C2(NC(=O)c3ccccc3CNC(=O)C(=O)NCC#N)CC2)c1 [Example 474] | 100 to 1000 nM
63 | COC(=O)/C=C/C1(NC(=O)C(=O)NCc2ccccc2C(=O)N[C@H](C)c2cccc3ccccc23)CC1 [Example 36] | > 10000 nM
64 | CC(NC(=O)C(=O)NCC#N)c1ccccc1C(=O)N[C@H](C)c1cccc2ccccc12 (some centres unmarked) [Example 50] | > 10000 nM
65 | C=CCNC(=O)C(=O)NCc1ccccc1C(=O)NC1(c2ccc3ccccc3c2)CC1 [Example 497] | > 10000 nM
66 | CCOc1cccnc1C#CC1(NC(=O)C(=O)NCc2ccccc2C(=O)NC2(c3ccc4ccccc4c3)CC2)CC1 [Example 203] | > 10000 nM
67 | CC(C)n1nccc1C#CCNC(=O)C(=O)NCc1ccccc1C(=O)NC1(c2cc(F)cc(-c3cnn(C4CC4)c3)c2)CC1 [Example 278] | 100 to 1000 nM
68 | CC(C)[C@@H](C#Cc1ncccc1C(F)(F)F)NC(=O)C(=O)NCc1ccccc1C(=O)NC1(c2ccc3nn(C)cc3c2)CC1 [Example 205] | > 10000 nM
69 | O=C(NCC#Cc1nccs1)C(=O)NCc1ccccc1C(=O)NC1(c2cccc3cnccc23)CC1 [Example 391] | < 100 nM
70 | COC(=O)/C=C/CNC(=O)C(=O)NC(C)c1ccccc1C(=O)N[C@H](C)c1cccc2ccccc12 (some centres unmarked) [Example 52] | 1000 to 10000 nM
71 | C=CC(=O)NNC(=O)C(=O)Nc1ccccc1C(=O)N[C@H](C)c1cccc2ccccc12 [Example 27] | > 10000 nM
